# From paper PMC7354438 (Viruses, 2020)
# Where a name gives a salt, the structure may show the parent alone.
# Tested on: hCoV-19/Norway/Trondheim-E9/2020
# Test: Drug test: viability of SARS-CoV-2-infected Vero-E6 cells (CellTiter-Glo)
# Format: cell-based
# Set-up: AUC: unit not given beside the values
# Details: 72 h
row,Compound,AUC
1,CN[C@H]1C(=O)N[C@@H]2Cc3ccc(cc3)Oc3cc4cc(c3O[C@@H]3O[C@H](C(=O)O)[C@@H](O)[C@H](O)[C@H]3NC(=O)CCCCCCCCC(C)C)Oc3ccc(cc3Cl)[C@@H](O)[C@@H]3NC(=O)[C@H](NC(=O)[C@@H]4NC(=O)[C@@H](NC2=O)c2cc(cc(O)c2Cl)Oc2cc1ccc2O)c1ccc(O)c(c1)-c1c(O[C@H]2O[C@H](CO)[C@@H](O)[C@H](O)[C@@H]2O)cc(O)cc1[C@@H](C(=O)NCCCN(C)C)NC3=O [Dalbavancin],"136,29"
2,Cc1ccc(C(=O)Nc2ccc(S(=O)(=O)O)c3cc(S(=O)(=O)O)cc(S(=O)(=O)O)c23)cc1NC(=O)c1cccc(NC(=O)Nc2cccc(C(=O)Nc3cc(C(=O)Nc4ccc(S(=O)(=O)O)c5cc(S(=O)(=O)O)cc(S(=O)(=O)O)c45)ccc3C)c2)c1 [Suramin],"94,57"
3,"CC(C)OC(=O)[C@H](C)N[P@](=O)(OC[C@H]1O[C@@H](n2ccc(=O)[nH]c2=O)[C@](C)(F)[C@@H]1O)Oc1ccccc1 [PSI-7977 (Sofosbuvir), Sofosbuvir]","131,11"
4,"Cn1c(=O)c2c(ncn2CC(O)CO)n(C)c1=O (stereo not shown) [7-(2,3-Dihydroxypropyl)theophylline]","195,44"
5,Teicoplanin,"145,39"
6,CCN(CC)C[C@@H](O)CNc1ccc(NC[C@H]2CO2)c2c1C(=O)c1ccccc1C2=O [BDA-366],"174,3"
7,CS(=O)(=O)O.Cc1ccc2c(c1)c1c3n2CCNC3CCC1 (stereo not shown) [Pirlindole mesylate],"120,4"
8,CC(=O)O[C@H]1C[C@H](O[C@H]2[C@@H](O)C[C@H](O[C@H]3[C@@H](O)C[C@H](O[C@H]4CC[C@@]5(C)[C@H](CC[C@@H]6[C@@H]5C[C@@H](O)[C@]5(C)[C@@H](C7=CC(=O)OC7)CC[C@]65O)C4)O[C@@H]3C)O[C@@H]2C)O[C@H](C)[C@H]1O[C@@H]1O[C@H](CO)[C@@H](O)[C@H](O)[C@H]1O [Lanatoside C],"54,25"
9,CO[C@H]1C[C@@H]2CC[C@@H](C)[C@@](O)(O2)C(=O)C(=O)N2CCCC[C@H]2C(=O)O[C@H]([C@H](C)C[C@@H]2CC[C@@H](O)[C@H](OC)C2)CC(=O)[C@H](C)/C=C(\C)[C@@H](O)[C@@H](OC)C(=O)[C@H](C)C[C@H](C)/C=C/C=C/C=C/1C [Rapamycin],"46,9"
10,C[C@H]1O[C@@H](O[C@H]2CC[C@@]3(C)[C@@H](CC[C@]4(C)[C@@H]3C=C[C@]35OC[C@@]6(CCC(C)(C)C[C@H]63)[C@@H](O)C[C@]54C)[C@]2(C)CO)[C@H](O)[C@@H](O[C@@H]2O[C@H](CO)[C@@H](O)[C@H](O)[C@H]2O)[C@H]1O [Saikosaponin A],77
11,N=C(N)c1ccc2cc(OC(=O)c3ccc(N=C(N)N)cc3)ccc2c1 [Nafamostat],"166,53"
12,Chicoric acid,"93,1"
13,COc1ccc2cc3[n+](cc2c1OC)CCc1cc2c(cc1-3)OCO2 [Berberine],"236,67"
14,Cc1cc(O)c2c(c1)C(=O)c1cc(O)cc(O)c1C2=O [Emodin],"170,24"
15,C[C@]12Cc3c[nH]nc3C[C@@H]1CC[C@@H]1[C@@H]2CC[C@@]2(C)[C@H]1CC[C@]2(C)O [Stanozolol],"161,7"
16,Abamectin,"151,97"
17,Clomiprade hydrochloride,"74,69"
18,CC[C@H](CO)Nc1nc(NCc2ccccc2)c2ncn(C(C)C)c2n1 [Roscovitine],"137,97"
19,Oc1c(Cl)cc(Cl)c(Cl)c1Cc1c(O)c(Cl)cc(Cl)c1Cl [Hexachlorophene],"122,15"
20,"NCCCC(N)(C(=O)O)C(F)F (stereo not shown) [DFMO (Difluoromethylomithine), Difluoromethylomithine]","142,66"
21,CC[C@@]1(O)C(=O)OCc2c1cc1n(c2=O)Cc2cc3ccccc3nc2-1 [Camptothecin],"57,75"
22,CN[C@@H]1C[C@H]2O[C@@](C)([C@@H]1OC)n1c3ccccc3c3c4c(c5c6ccccc6n2c5c31)C(=O)NC4 [Staurosporine],"15,75"
23,"CC1(C)[C@@H](O[C@H]2O[C@H](C(=O)O)[C@@H](O)[C@H](O)[C@H]2O[C@@H]2O[C@H](C(=O)O)[C@@H](O)[C@H](O)[C@H]2O)CC[C@]2(C)[C@H]3C(=O)C=C4[C@@H]5C[C@@](C)(C(=O)O)CC[C@]5(C)CC[C@@]4(C)[C@]3(C)CC[C@@H]12 [Glycyrrhizic acid (Glycyrrhizin), Glycyrrhizic acid]","235,76"
24,Nc1ncn([C@@H]2O[C@H](CO)[C@@H](O)[C@H]2O)c(=O)n1 [Azacytidine],"228,06"

# Same assay, conditions: area under the dose-response curve of viability of virus-infected Vero-E6 cells; moi 0.1; 72 h; 7 concentrations; decimal comma
row,Compound,AUC
1,O=C(/C=C\n1cnc(-c2cc(C(F)(F)F)cc(C(F)(F)F)c2)n1)NNc1ccccn1 [Verdinexor],"83,93"
2,CNC(=O)c1cc(Oc2ccc(NC(=O)Nc3ccc(Cl)c(C(F)(F)F)c3)c(F)c2)ccn1 [Regorafenib],"24,12"
3,Nc1ccn([C@@H]2O[C@H](CO)[C@@H](O)C2(F)F)c(=O)n1 [Gemcitabine],"92,89"
4,CN(C)CCOc1ccc(/C(=C(/CCCl)c2ccccc2)c2ccccc2)cc1 [Toremifene],"27,02"
5,Cc1nc(Nc2ncc(C(=O)Nc3c(C)cccc3Cl)s2)cc(N2CCN(CCO)CC2)n1 [Dasatinib],"135,45"
6,CC(=O)Oc1ccccc1C(=O)O [Acetylsalicylic acid],"131,04"
7,O=C1c2c(O)ccc(O)c2C(=O)c2c(NCCNCCO)ccc(NCCNCCO)c21 [Mitoxantrone],"125,09"
8,Nc1nc(O)c2ncn(COC(CO)CO)c2n1 [Ganciclovir],"243,88"
9,"CC1=C(/C=C/C(C)=C/C=C/C(C)=C/C(=O)Nc2ccc(O)cc2)C(C)(C)CCC1 [Fenretinide (4-HPR), Fenretinide]","137,9"
10,CC12CC3CC(C)(C1)CC(N)(C3)C2 [Memantine],"115,78"
11,CN(Cc1cc(Br)cc(Br)c1N)C1CCCCC1 [Bromhexine HCl],"124,95"
12,O=C(c1ccc(OCCN2CCCCC2)cc1)c1c(-c2ccc(O)cc2)sc2cc(O)ccc12 [Raloxifene],"199,57"
13,CCCCNc1cc(C(=O)O)cc(S(N)(=O)=O)c1Oc1ccccc1 [Bumetanide],"87,85"
14,Nc1nc(Cl)nc2c1ncn2[C@@H]1O[C@H](CO)[C@@H](O)[C@@H]1F [Clofarabine],"112,42"
15,"CCCCCCCCCCCCCCCCOCCCOP(=O)(O)CO[C@H](CO)Cn1ccc(N)nc1=O [Brincidofovir (CMX001), Brincidofovir]","126,49"
16,COC(=O)C1=C(C)NC(C)=C(C(=O)OCCN2CCN(C(c3ccccc3)c3ccccc3)CC2)C1c1cccc([N+](=O)[O-])c1 (stereo not shown) [Manidipine],133
17,COc1ccc2c(c1)c(CC(=O)O)c(C)n2C(=O)c1ccc(Cl)cc1 [Indomethacin],"104,51"
18,COc1cc2ncnc(Nc3ccc(F)c(Cl)c3)c2cc1OCCCN1CCOCC1 [Gefitinib],"188,86"
19,O=C(O)[C@H]1C2CCC(CC2)[C@@H]1Nc1nc(-c2c[nH]c3ncc(F)cc23)ncc1F [Pimodivir],"126,91"
20,Cc1c(-c2ccc(-c3ccccc3F)cc2)nc2ccc(F)cc2c1C(=O)O [Brequinar],"260,54"
21,CC(=O)N[C@H]1[C@H]([C@H](O)[C@H](O)CO)OC(C(=O)O)=C[C@@H]1N=C(N)N [Zanamivir],"113,54"
22,CCN(CC)CCCC(C)Nc1c2ccc(Cl)cc2nc2ccc(OC)cc12 (stereo not shown) [Quinacrine dihydrochloride],"105,63"

row,Compound,AUC
1,CC(C)C(=O)OCC(=O)[C@@]12O[C@H](C3CCCCC3)O[C@@H]1C[C@H]1[C@@H]3CCC4=CC(=O)C=C[C@]4(C)[C@H]3[C@@H](O)C[C@@]12C [Ciclesonide],"157,15"
2,O=c1c(-c2ccc(O)cc2)coc2cc(O[C@@H]3O[C@H](CO)[C@@H](O)[C@H](O)[C@H]3O)cc(O)c12 [Genistin],"54,1"
3,O=C(Nc1ccc([N+](=O)[O-])cc1Cl)c1cc(Cl)ccc1O [Niclosamide],"149,52"
4,CC(=O)OCC(CCn1cnc2cnc(N)nc21)COC(C)=O [Famciclovir],"149,52"
5,CC(C)OC(=O)OCOP(=O)(CO[C@H](C)Cn1cnc2c(N)ncnc21)OCOC(=O)OC(C)C [Tenofovir disoproxil fumarate],"137,2"
6,CCCCOc1cc(C(=O)NCCN(CC)CC)c2ccccc2n1 [Dibucaine],"214,34"
7,CCN(CC)CCCC(C)Nc1ccnc2cc(Cl)ccc12 (stereo not shown) [Chloroquine phosphate],"165,9"
8,CC[C@H]1OC(=O)[C@H](C)[C@@H](O[C@H]2C[C@@](C)(OC)[C@@H](O)[C@H](C)O2)[C@H](C)[C@@H](O[C@@H]2O[C@H](C)C[C@H](N(C)C)[C@H]2O)[C@](C)(O)C[C@@H](C)CN(C)[C@H](C)[C@@H](O)[C@]1(C)O [Azithromycin],"119,42"
9,CCn1cc(C(=O)O)c(=O)c2cc(F)c(N3CCNCC3)nc21 [Enoxacin],"118,23"
10,Nc1nc(=O)c2ncn([C@@H]3C[C@H](CO)[C@H]3CO)c2[nH]1 [Lobucavir],"153,65"
11,CN(C)c1ccc(O)c2c1C[C@H]1C[C@H]3[C@H](N(C)C)C(O)=C(C(N)=O)C(=O)[C@@]3(O)C(O)=C1C2=O [Minocycline],"119,14"
12,"CNC(=O)c1cc(Oc2ccc(NC(=O)Nc3ccc(Cl)c(C(F)(F)F)c3)cc2)ccn1 [Sorafenib (BAY 43-9006), Sorafenib]","33,12"
13,Cc1cc(CCCOc2c(C)cc(-c3noc(C(F)(F)F)n3)cc2C)on1 [Pleconaril],"141,75"
14,CC(=O)Oc1ccccc1C(=O)Nc1ncc([N+](=O)[O-])s1 [Nitazoxanide],"120,33"
15,COc1ccc2nc([S@@+]([O-])Cc3ncc(C)c(OC)c3C)[nH]c2c1 [Esomeprazole],"177,52"
16,CC(C)n1c(/C=C/C(O)CC(O)CC(=O)O)c(-c2ccc(F)cc2)c2ccccc21 (stereo not shown) [Fluvastatin],"154,14"
17,"CC(C)C[C@H](NC(=O)[C@H](Cc1ccccc1)NC(=O)c1cnccn1)B(O)O [Bortezomib (PS-341), Bortezomib]","68,67"
18,CC(C)(C)c1cnc(CSc2cnc(NC(=O)C3CCNCC3)s2)o1 [SNS-032],"96,25"
19,"CN(C)C(=N)N=C(N)N [Metformin (1,1-Dimethylbiguanide), 1,1-Dimethylbiguanide]","116,76"
20,"CCN(CC)CCOc1ccc2c(c1)C(=O)c1cc(OCCN(CC)CC)ccc1-2 [Tilorone (dihydrochloride), Tilorone]","83,72"
21,CCN(CCO)CCCC(C)Nc1ccnc2cc(Cl)ccc12 (stereo not shown) [Hydroxychloroquine],"147,63"
